Patent publication US20050014751A1, “Use of n-acyl homoserine lactones for the treatment of insulitis” (priority 2001, published 2005)
Several values for one entry are separate records, joined by “and”; a condition that tells them apart may be missing. Equal entries are not always repeated.

Columns and labels:
human PBMC = experiment: ConA mitogen-stimulated proliferation of human PBMC; assay type: cell-based; conditions: ConA 1 μg/ml, 100,000 PBMC
Procedure: Blood specimens were obtained with consent from healthy human volunteers. Human peripheral blood mononuclear cells (PBMC) were isolated from heparinised whole blood by buoyant density centrifugation over Histopaque 1077 (Sigma, Poole, UK) at 600 g for 20 minutes. PBMC harvested from the ‘buffy’ layers were washed twice with RPMI 1640 medium and resuspended in CTCM. HSL compounds were tested at similar dilutions as for murine splenocytes in 200 μl of CTCM, containing 1 μg/ml of ConA and 100,000 PBMC. Human PBMC were incubated for 48 h at 37° C. in 5% CO2-air, followed by pulsing with 0.25 μCi [^3H]-thymidine (see above). After a further incubation of 24 h cells were harvested onto fibreglass filters and then counted in the presence of MicroScint-O with the Packard TopCount.
Concanavalin induced cell proliferation of human peripheral blood mononuclear cells (PBMC) was tracked, as described in I above, by a measurement of counts per minute using the scintillation counter. The inhibitory effect of an HSL compound being tested on cell proliferation was indicated by a reduction in counts per minute. […]
(§1) In the cell culture assays the number of cells used (mouse splenocytes and human PBMC) was initially optimised to 100,000 cells per well. The optimal dose of ConA of 1 μg/ml used in the cell proliferation assays was determined from ConA titration curves. […]

insulitis in NOD mice = experiment: Effect of OdDHL on insulitis in NOD mice (slide score); assay type: in vivo; conditions: 3 times a week for four weeks
Procedure: To investigate the effect of OdDHL on insulitis or type I diabetes mellitus, mice (NOD) with a genetic predisposition to develop IDDM (insulin dependent diabetes mellitus) were treated with OdDHL. The animals were dosed at […] intraperitoneally from 4 weeks of age, 3 times a week for four weeks. Insulitis was assessed at 14 weeks. In the table a score of 3 or more (DMSO and PBS) represents severe grade insulitis and 1.3 (OdDHL) represents little infiltration (a score of 1 would represent low grade peri-insulitis). The mice were scored according to the method of Beales et al (European Journal of Pharmacology 357(1998) 221-225).

TNF-α production = conditions: Infection and Immunity, vol.66, no.1, January 1998; cited from earlier work
NOD mice = experiment: Comparative immune toxicity assessment in NOD mice; assay type: in vivo
Procedure: The overt immune toxicity of OdDHL was investigated using the dose regime described above in Example 5 for the alleviation of insulitis or diabetes in NOD mice. […] Splenocytes from the mice were taken along the time course of treatment (3 times a week for 4 weeks) and were stained with anti-CD-3 (pan T-cell), anti-CD4 (helper T-cell), anti-CD8 (cytotoxic T-cell) and anti-CD19 (B cell) antibodies for 30 minutes on ice. Cells were washed twice in PBS/BSA and then fixed in 0.5% formaldehyde. Cell phenotypes were analysed on BD FACScan.

murine splenocytes = experiment: ConA mitogen-stimulated proliferation of murine splenocytes; assay type: cell-based, BALB/c mice; conditions: ConA 1 μg/ml, 100,000 spleen cells, 1 mM to 0.1 μM
Procedure: The concanavalin A (ConA) cell proliferation assay was used to assess the effect of homoserine lactone (HSL) compounds on T-cell activation and proliferation. Proliferation was assessed by the incorporation of [^3H]-thymidine into DNA. Eight-week-old female BALB/c mice were obtained from Harlan (Bicester, Oxon, UK) and given food and water ad libitum. Splenocyte suspensions were prepared by removing the spleens and placing them into. RPMI 1640 medium. The spleens were forced through 70-μm-pore-size wire gauzes using the plunger from a 5-ml syringe to produce a single cell suspension. The cells were pelleted by centrifugation, and erythrocytes were lysed with 0.017M Tris, 0.144M ammonium chloride buffer, pH 7.2. Leucocytes were washed twice with RPMI 1640 medium with 2% (vol/vol) foetal calf serum (FCS) and resuspended in complete cell culture medium (CTCM) consisting of RPMI 1640 medium with 5% FCS, 2 mM L-glutamine, and 5×10^−5 M 2-mercaptoethanol. […] After the addition of 25 μl of MicroScint-O (Packard) to each well the filters were counted with the Packard TopCount scintillation counter. […]
as §1

diabetes in NOD mice = experiment: In vivo effects of CSA, anti-TNFα and OdDHL in the diabetes model; conditions: OdDHL 30 mg/kg, 3 times per week for 4 weeks
Procedure: Dose regimes of Cyclosporin A, anti-TNFα antibody and OdDHL were compared in the diabetes model. NOD mice were dosed at 25 mg/kg on alternate days for 160 days following the methodology of Mori et al (Diabetologia (1986) 29: 244-247), the content of which is incorporated herein by reference, for the investigation of CSA, and Anti TNF at 12 mg per individual, 0.5 mg three times a week for 8 weeks in accordance with the method of Suk et al (J. Immunology (2001) 166: 4481-4489), the content of which is incorporated herein by reference, was used for TNFα. OdDHL was dosed at 30 mg/kg, 3 times per week for 4 weeks as above.

For `CCCCCCCCCC(=O)CC(=O)N[C@H]1CCOC1=O` [OdDHL, N-(3-oxododecanoyl)-L-homoserine Lactone], the “inhibition of proliferation of human PBMC ([3H]-thymidine cpm, FIG. 7)” value (human PBMC) was “inhibited proliferation”, the “Slide Score (insulitis), individual animal” value (insulitis in NOD mice; 100 mg/kg intraperitoneally from 4 weeks of age, insulitis assessed at 14 weeks, one value per animal, 100 mg/kg) was 1.936 and 1.478 and 1.154 and 1.000 and 1.418 and the “Slide Score (insulitis), Group Total” value (insulitis in NOD mice; 100 mg/kg intraperitoneally, assessed at 14 weeks) was 6.986. The “Slide Score (insulitis), Group Mean” value (insulitis in NOD mice; 100 mg/kg intraperitoneally, assessed at 14 weeks, score of 3 or more = severe grade insulitis, 1 = low grade peri-insulitis, 100 mg/kg) was 1.397, the “inhibition of TNF-α production by LPS-stimulated adherent murine peritoneal macrophages” value (TNF-α production) was “inhibiting” and the “overt immune toxicity (CD3, CD4, CD8, CD19 splenocyte populations, FACScan, FIG. 12)” value (NOD mice; 3 times a week for 4 weeks) was “lack of overt immune toxicology”. For the same compound, the “body weight gain of treated mice” value (NOD mice; dose regime of Example 5, vs non-treated littermates) was “gained weight identically to their non-treated littermates”, the “inhibition of splenocyte proliferation ([3H]-thymidine cpm, FIG. 6)” value (murine splenocytes) was “inhibits splenocyte proliferation” and the “in vivo action compared to reported data of Mori (CSA) and Suk (anti-TNF)” value (diabetes in NOD mice) was “more effective in vivo action than in vitro”.
